From publication PMC12845261, “Design, Synthesis, and Biological Evaluation of N-Acyl-Hydrazone-Linked Quinazolinone Derivatives with Antioxidant, Antimicrobial, and Anticancer Potential” (Pharmaceuticals, 2025)
≈ marks a conversion by molar mass, not a printed value.

Experiments:
[1] = system: HT-29 (human colorectal adenocarcinoma); test: Cytotoxicity, MTT assay; assay type: cell-based; settings: 24 h, tested range 3.125 to 50 µM
Method: (§1) For the cytotoxicity screening of the N-acyl-hydrazone derivatives, three cell lines were employed: HT-29 (human colorectal adenocarcinoma), A431 (human epidermoid carcinoma), and VERO (non-tumoral African green monkey kidney epithelial cells). All cell lines were obtained from the American Type Culture Collection (ATCC, Manassas, VA, USA), and maintained in appropriate culture media as follows: HT-29 and A431 cells were cultured in Dulbecco’s Modified Eagle Medium (DMEM), while VERO cells were cultured in Minimum Essential Medium (MEM). Both culture media were supplemented with 10% fetal bovine serum (FBS) and 1% penicillin-streptomycin mix, to formulate the complete culture medium. All cell lines were incubated at 37 °C in a humidified atmosphere containing 5% CO2. […] For the cytotoxicity screening, cells were seeded into sterile 96-well plates at an initial density of 1 × 10^4 cells/well and allowed to adhere for 24 h. Subsequently, cells were treated with increasing concentrations (3.125 to 50 µM) of compounds 1a–1f and 2 for 24 h. In parallel, 5-fluorouracil (5-FU, Sigma Aldrich, St. Louis, MO, USA) was included as a reference drug and tested over the same concentration range under identical experimental conditions. […] For the experimental control, culture medium was refreshed at the time of treatment application. […] Louis, MO, USA). Briefly, the culture media were discarded from each well and replaced with a fresh solution of MTT (1 mg/mL). Plates were incubated for 4 h at 37 °C, and the resulting formazan crystals were solubilized with isopropanol. The absorbance was measured at 550 nm using the FlexStation III multimodal reader (Molecular Devices, San Jose, CA, USA). All experiments were performed in triplicate and repeated in three independent assays. Cell viability was calculated as a percentage relative to the untreated control using the formula Cell Viability (%) = (Abs treated/Abs control) × 100. Data were processed using GraphPad Prism 6.0 and presented as mean ± standard deviation (SD). Statistical analysis was performed using one-way analysis of variance (ANOVA) followed by Dunnett’s post hoc test for comparison with the untreated control group.

[2] = system: VERO (non-tumoral African green monkey kidney epithelial cells); test: Cytotoxicity, MTT assay; assay type: cell-based; settings: 24 h
Method: as §1

[3] = Total antioxidant capacity (TAC), DPPH method; settings: 30 min, 517 nm, compound stock 1 mg/mL in methanol, reference ascorbic acid TAC = 100%
Method: The total antioxidant capacity (TAC) was evaluated using diphenyl-1-picrylhydrazyl free radical (DPPH) method. The TAC value was determined in relation to the antioxidant capacity of the reference (ascorbic acid, TAC = 100%). […] The maximum value was recorded for 1c (~45%), followed by 1f and 1a (~43%), while the minimum for 1e (~19%).
In this study, the TAC values were obtained using the most-known DPPH method, in which the intense violet colour of the free radical solution is decreasing. Stock solutions of compounds 1a–1f and 2 were prepared in absolute methanol at a concentration of 1 mg/mL. A stock solution of 2,2-diphenyl-1-picrylhydrazyl free radical was obtained in the same solvent, at a concentration of 2 × 10^−4 M. To 1.8 mL of DPPH solution was added 0.2 mL of each solution of the compounds 1a–1f and 2 and the mixture was left in the dark for 30 min, followed by measurements of the absorbance at 517 nm. The following equation was used to calculate TAC: TAC%=Abs0 min−Abs30 min/Abs0min·100 where Abs0 min refers to the initial absorbance of the DPPH free radical solution, and Abs 30 min refers to the absorbance of the solution of DPPH and the added compound after 30 min. Ascorbic acid was used as a reference.

E. coli ATCC 25922 [4] = test: Quantitative antimicrobial activity, serial binary microdilution (MIC, IC50); assay type: cell-based; settings: Escherichia coli, ATCC25922; E. coli ATCC 25922; reference drug
Method: (§2) For the evaluation of antimicrobial activity, the following reference strains were used: S. aureus ATCC 25923, E. faecalis ATCC 29212, E. coli ATCC 25922, P. aeruginosa ATCC 27853 and C. albicans ATCC 10231.
(§3) Quantitative analysis was performed using the method of serial binary microdilutions in liquid medium (Tryptone Soy Broth for bacteria and Sabouraud Broth for yeasts) in plates with 96 wells. Stock solutions of 10 mg/mL were made in DMSO, and the range of concentrations tested for each compound was 5000–0.16 μg/mL. Simultaneously, the DMSO control was carried out under the same working conditions. Each well was inoculated with 10 μL of microbial suspension, adjusted to a density of 1.5 × 10^8 CFU/mL prepared from 18 to 24 h cultures. After 24 h of incubation at 37 °C, microbial growth and multiplication were evaluated both macroscopically and spectrophotometrically at 620 nm to establish the MIC values. […] Blanks were made for each sample concentration, and the formula was applied: Microbial viability(%)=Asample−Ablank/Astrain control−Asterility control·100

E. faecalis ATCC 29212 [5] = test: as above; assay type: cell-based; settings: Enterococcus faecalis, ATCC29212, reference drug
Method: as §2, §3

P. aeruginosa ATCC 27853 [6] = test: as above; assay type: cell-based; settings: Pseudomonas aeruginosa, ATCC27853, reference drug
Method: as §2, §3

S. aureus ATCC 25923 [7] = test: as above; assay type: cell-based; settings: Staphylococcus aureus, ATCC25923; S. aureus ATCC 25923; reference drug
Method: as §2, §3

E. coli ATCC 25922 [8] = test: Qualitative antimicrobial activity, adapted Kirby-Bauer (inhibition zone); assay type: cell-based; settings: reference drug at 100 μg/mL
Method: (§4) For the evaluation of antimicrobial activity, the following reference strains were used: S. aureus ATCC 25923, E. faecalis ATCC 29212, E. coli ATCC 25922, P. aeruginosa ATCC 27853 and C. albicans ATCC 10231. The microbial suspensions were prepared at a density of 1.5 × 10^8 CFU/mL, corresponding to the McFarland 0.5 nephelometric standard. These suspensions were obtained from 18–24 h cultures developed on solid media (Mueller-Hinton for bacteria, Sabouraud for yeast). Antimicrobial activity was assessed using an adapted Kirby-Bauer method according to CLSI (Clinical and Laboratory Standards Institute). In addition to the 10 mg/mL stock solutions prepared in DMSO for each compound, a solvent control was used. Each stock solution (10 μL) was distributed in spot on the medium inoculated with the interest strain. After measuring the diameter of the inhibition zone (IZD) around the spot (mm), the results were expressed as the mean ± standard deviation (SD) for each compound tested in duplicate.

E. faecalis ATCC 29212 [9] = test: as above; assay type: cell-based; settings: reference drug at 100 μg/mL
Method: as §4

P. aeruginosa ATCC 27853 [10] = test: as above; assay type: cell-based; settings: reference drug at 100 μg/mL
Method: as §4

S. aureus ATCC 25923 [11] = test: as above; assay type: cell-based; settings: reference drug at 100 μg/mL
Method: as §4

E. coli ATCC 25922 [12] = test: Microbicidal activity (MMC); assay type: cell-based; settings: reference drug
Method: (§5) For the evaluation of antimicrobial activity, the following reference strains were used: S. aureus ATCC 25923, E. faecalis ATCC 29212, E. coli ATCC 25922, P. aeruginosa ATCC 27853 and C. albicans ATCC 10231. To determine the MMCs, 5 μL of culture was taken from each well and distributed on solid medium. The plates were incubated for 20–24 h at 37 °C. The lowest concentration at which no microbial growth was observed was considered MMC.

E. faecalis ATCC 29212 [13] = test: Microbicidal activity (MMC); assay type: cell-based; settings: reference drug
Method: as §5

P. aeruginosa ATCC 27853 [14] = test: Microbicidal activity (MMC); assay type: cell-based; settings: reference drug
Method: as §5

S. aureus ATCC 25923 [15] = test: Microbicidal activity (MMC); assay type: cell-based; settings: reference drug
Method: as §5

E. coli ATCC 25922 [16] = test: Microbial adhesion, crystal violet (MICMA); assay type: cell-based; settings: reference drug
Method: as §2
(§6) Following quantitative analysis of antimicrobial activity, microbial adhesion was evaluated after methanol fixation and violet crystal staining (0.1%). The absorbance of the adhered biomass colored with violet crystal and resuspended in 33% acetic acid was measured at 490 nm.

E. faecalis ATCC 29212 [17] = test: Microbial adhesion, crystal violet (MICMA); assay type: cell-based; settings: reference drug
Method: as §2, §6

P. aeruginosa ATCC 27853 [18] = test: Microbial adhesion, crystal violet (MICMA); assay type: cell-based; settings: reference drug
Method: as §2, §6

S. aureus ATCC 25923 [19] = test: Microbial adhesion, crystal violet (MICMA); assay type: cell-based; settings: reference drug
Method: as §2, §6

C. albicans ATCC 10231 [20] = test: Quantitative antimicrobial activity, serial binary microdilution (MIC, IC50); assay type: cell-based; settings: Candida albicans, ATCC10231, reference drug
Method: as §2, §3

C. albicans ATCC 10231 [21] = test: Qualitative antimicrobial activity, adapted Kirby-Bauer (inhibition zone); assay type: cell-based; settings: reference drug at 140 μg/mL
Method: as §4

C. albicans ATCC 10231 [22] = test: Microbicidal activity (MMC); assay type: cell-based; settings: reference drug
Method: as §5

C. albicans ATCC 10231 [23] = test: Microbial adhesion, crystal violet (MICMA); assay type: cell-based; settings: reference drug
Method: as §2, §6

What does the source list for O=c1[nH]cc(F)c(=O)[nH]1 [Compound 5-FU, 5-fluorouracil, reference compound]?
IC50 [1]: not reached within the tested concentration range; Maximum reduction in viability ([2]; 50 µM): approximately 25%; IC50 ([2]; tested range 3.125 to 50 µM): not reached within the tested range

With O=C1O[C@H]([C@@H](O)CO)C(O)=C1O [ascorbic acid, reference compound] as the compound, how does the “TAC (%)” value [3] read?
The value was 100%.

Which MIC (E. coli ATCC 25922 [4]) does the source give for O=C(O)c1cn(C2CC2)c2cc(N3CCNCC3)c(F)cc2c1=O [Ciprofloxacin, ciprofloxacin, reference compound] here?
The MIC was 0.2 µg/mL (≈ 0.604 µM).

What about the MIC (E. faecalis ATCC 29212 [5]) of the same compound?
The MIC was 0.78 µg/mL (≈ 2.35 µM).

What about the MIC (P. aeruginosa ATCC 27853 [6]) of the same compound?
The MIC was 0.39 µg/mL (≈ 1.18 µM).

And the MIC (S. aureus ATCC 25923 [7])?
The MIC was 0.78 µg/mL (≈ 2.35 µM).

And the “IZD (100 μg/mL, mm)” value (E. coli ATCC 25922 [8])?
The value was 34.00 ± 2.00 mm.

And the “IZD (100 μg/mL, mm)” value (E. faecalis ATCC 29212 [9])?
Its value is 8.33 ± 0.58 mm.

And the “IZD (100 μg/mL, mm)” value (P. aeruginosa ATCC 27853 [10])?
The value was 15.33 ± 0.58 mm.

And the “IZD (100 μg/mL, mm)” value (S. aureus ATCC 25923 [11])?
Its value is 17.33 ± 0.58 mm.

And the “MMC” value (E. coli ATCC 25922 [12])?
The value was 0.78 µg/mL.

What about the “MMC” value (E. faecalis ATCC 29212 [13]) of the same compound?
Its value is 6.25 µg/mL.

What about the “MMC” value (P. aeruginosa ATCC 27853 [14]) of the same compound?
The value was 0.39 µg/mL.

And the “MMC” value (S. aureus ATCC 25923 [15])?
Its value is 1.56 µg/mL.

What about the “MICMA” value (E. coli ATCC 25922 [16]) of the same compound?
The value was <0.10 µg/mL.

What about the “MICMA” value (E. faecalis ATCC 29212 [17]) of the same compound?
The value was 0.78 µg/mL.

What about the “MICMA” value (P. aeruginosa ATCC 27853 [18]) of the same compound?
Its value is 0.39 µg/mL.

And the “MICMA” value (S. aureus ATCC 25923 [19])?
Its value is 0.39 µg/mL.

Which MIC (C. albicans ATCC 10231 [20]) does the source give for CC(=O)N1CCN(c2ccc(OCC3COC(Cn4ccnc4)(c4ccc(Cl)cc4Cl)O3)cc2)CC1 (stereo not drawn) [Ketoconazole, ketoconazole, reference compound] here?
The MIC was 8.75 µg/mL (≈ 16.5 µM).

And the “IZD (140 μg/mL, mm)” value (C. albicans ATCC 10231 [21])?
The value was 6.5 ± 0.71 mm.

What about the “MMC” value (C. albicans ATCC 10231 [22]) of the same compound?
The value was 35 µg/mL.

And the “MICMA” value (C. albicans ATCC 10231 [23])?
Its value is 0.27 µg/mL.
